Experiments:
Vrg4 liposomes = assay type: biochemical; conditions: liposome assays, GDP-mannose versus GMP as antiport substrate
[1] = tested on: NDY5 yeast containing an empty yEP181 vector; test: Hygromycin B-based in vivo viability (growth) assay; assay type: cell-based, Saccharomyces cerevisiae
Method: The yeast was grown in minimal media to select for the plasmids, and the expression of the nanobody was induced with galactose. After overnight galactose induction, the yeast culture was diluted, and growth was monitored over 30 h.
An overnight culture was grown in minus -Leu-Ura medium containing 2% glucose and then diluted 1:10 into medium containing 2% lactate. After 9 h of growth, 2% galactose was added, and the cultures were left overnight. […] The cultures were grown at 30 °C with shaking, and growth was monitored over the next 30 h by measuring the OD.

| Compound | Transport rate as antiport substrate, in words (Vrg4 liposomes) | Growth / sensitivity to hygromycin B, in words [1] |
| --- | --- | --- |
| Nc1nc2c(ncn2[C@@H]2O[C@H](COP(=O)(O)OP(=O)(O)O[C@H]3O[C@H](CO)[C@@H](O)[C@H](O)[C@@H]3O)[C@@H](O)[C@H]2O)c(=O)[nH]1 [GDP-mannose] | faster transport rates and greater overall uptake |  |
| CN[C@H]1C[C@@H](N)[C@H](O)[C@@H](O[C@@H]2O[C@H](CO)[C@H](O)[C@@H]3OC4(O[C@H]23)O[C@H]([C@@H](N)CO)[C@H](O)[C@H](O)[C@H]4O)[C@@H]1O (some centres unmarked) [hygromycin B] |  | sensitive |
